The kcat is the number of substrate molecules converted per active site and unit of time at saturation.

Here are results for two molecules from patent publication US20140057332A1, “GLUCO-OLIGOSACCHARIDE OXIDASES FROM ACREMONIUM STRICTUM AND USES THEREOF” (The Governing Council of the University of Toronto, priority 2011, published 2014).

Assay [1] deals with Acremonium strictum strain T1 gluco-oligosaccharide oxidase GOOX-T1. The settings on record: cited from earlier work.
Assay [2] relates to Acremonium strictum gluco-oligosaccharide oxidase (GOOX). The settings on record: oxidation of maltose, Fan et al. (2000); cited from earlier work.
In assay [3] the target is T1, Acremonium strictum gluco-oligosaccharide oxidase GOOX-VN (type strain CBS 346.70, V38 and N388), SEQ ID NO. 2 (Sarocladium strictum, UniProt D7PF15, A38V/S388N).
T1 sequence (D7PF15 1-474 A38V/S388N): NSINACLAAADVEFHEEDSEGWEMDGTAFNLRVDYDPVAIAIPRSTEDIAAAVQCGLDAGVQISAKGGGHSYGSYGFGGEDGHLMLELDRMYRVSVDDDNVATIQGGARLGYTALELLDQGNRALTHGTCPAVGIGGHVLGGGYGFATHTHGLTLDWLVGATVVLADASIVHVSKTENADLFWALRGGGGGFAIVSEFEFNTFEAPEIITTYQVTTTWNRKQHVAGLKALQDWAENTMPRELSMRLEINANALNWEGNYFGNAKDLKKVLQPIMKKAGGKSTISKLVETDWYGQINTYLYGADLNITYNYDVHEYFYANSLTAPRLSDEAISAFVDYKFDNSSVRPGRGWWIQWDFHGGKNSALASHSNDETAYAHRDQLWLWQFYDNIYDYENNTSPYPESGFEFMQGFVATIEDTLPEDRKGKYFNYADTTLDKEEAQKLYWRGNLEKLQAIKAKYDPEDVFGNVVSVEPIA
The assay is described as follows: Enzymatic assay, kinetic analysis (chromogenic H2O2 assay) of GOOX-VN. The settings on record: 37° C., pH 8.0.
Method: (§1) A chromogenic assay was used to measure hydrogen peroxide production (15). Reactions contained 0.1 mM 4aminoantipyrine (4AA), 1 mM phenol, 0.5 U horseradish peroxidase, 40 mM Tris-HCl (pH 8.0), and different substrates were initiated by adding 0.2 μg of enzymes to the 250 μL reaction mixture. The production of H2O2 was coupled to the oxidation of 4aminoantipyrine by horseradish peroxidase and detected at 500 nm. Reactions were incubated at 37° C. for 15 min to measure the specific activity of GOOX on 10 mM of monosaccharide or 1 mM of oligosaccharide.
(§2) At least 12 substrate concentrations were included to obtain kinetic parameters for each substrate. Initial rates were obtained by measuring reaction products every 30 s for 15 min at 37° C. and pH 8.0, and kinetic parameters were calculated using the Michaelis-Menten equation (GraphPad Prism5 Software).

The target of assay [4] is T2, Acremonium strictum gluco-oligosaccharide oxidase GOOX-VN variant 1 Y300A, SEQ ID NO. 6 (Sarocladium strictum, UniProt D7PF15, A38V/S388N/Y300A).
T2 sequence (D7PF15 1-474 A38V/Y300A/S388N): T1 sequence (D7PF15 1-474 A38V/S388N) with Y300A
The assay is described as follows: Enzymatic assay, kinetic analysis (chromogenic H2O2 assay) of Y300A. The settings on record: 37° C., pH 8.0.
Method: as §1, §2

The target in assay [5] is T3, Acremonium strictum gluco-oligosaccharide oxidase GOOX-VN variant 2 Y300N, SEQ ID NO. 7 (Sarocladium strictum, UniProt D7PF15, A38V/S388N/Y300N).
T3 sequence (D7PF15 1-474 A38V/Y300N/S388N): T1 sequence (D7PF15 1-474 A38V/S388N) with Y300N
The assay is described as follows: Enzymatic assay, kinetic analysis (chromogenic H2O2 assay) of Y300N. The settings on record: 37° C., pH 8.0.
Method: as §1, §2

Residue numbers refer to the chain shown, from its start.

On to `OC[C@H]1O[C@H](O[C@H]2[C@H](O)[C@@H](O)C(O)O[C@@H]2CO)[C@H](O)[C@@H](O)[C@@H]1O` (stereo partly shown) [Maltose, maltose], for which the kcat in assay [1] (recombinant GOOX-T1) is 361 min⁻¹; in assay [3] it was 360.0 ± 5.1 min⁻¹; in assay [3] (listed as maltose), 360.0 min⁻¹. For the same molecule, in assay [2], the “Km, pH dependence” value is on record as “highest at pH 9”.

`OC[C@H]1O[C@@H](O[C@H]2[C@H](O)[C@@H](O)[C@H](O[C@H]3[C@H](O)[C@@H](O)C(O)O[C@@H]3CO)O[C@@H]2CO)[C@H](O)[C@@H](O)[C@@H]1O` (stereo partly shown) [Cellotriose, cellotriose]: the “catalytic efficiency (in words)” value in assay [1] (native GOOX purified from A. strictum T1) is “highest”. The values for the kcat in assay [4] and in assay [5] were 666.9 ± 9.5 min⁻¹ and 599.0 ± 4.9 min⁻¹, respectively.
